Measured values as given in patent publication US20260199284A1, “SPECIFIC VASH COMPOUNDS (SVC) INHIBITORS FOR HEART DISEASES” (MT ACT, priority 2023, published 2026).
Entries after “also recorded” stand apart in the source; their conditions may differ.

Key:
[1] = target: recombinant human VASH1 (hVASH1) and SVBP complex (Homo sapiens, UniProt Q7L8A9); experiment: In vitro detyrosination assay (ELISA-based) with recombinant human VASH1/SVBP; format: biochemical; conditions: for inhibition of detyrosinase activity of recombinant human VASH1: recombinant enzyme, dose-response
Procedure: FIG. 3: In vitro detyrosination assays using recombinant human VASH1 (hVASH1) and SVBP complex. ELISA-based method to measure detyrosinase activity. Dose-response allows for accurate determination of the inhibition of the compounds on the target.
We undertook an extensive analysis of the human proteome and sought to identify human proteins that encoded a -EEY sequence at the very C-terminal. […] Following 2 hours exposure of the human cells to the SVC_01 compound, we fixed and analysed by specific immunofluorescence the labelling of detyrosinated tubulin but also that of another posttranslational modification termed acetylation (FIG. 4).

[2] = tested on: tubulin detyrosination in human cells; experiment: Immunofluorescent (high content screening) detection of tubulin detyrosination in human cells; format: cell-based
Procedure: FIG. 4: Immuofluorescent staining of wild type human cells and VASH double knock-outs.
FIG. 5: Immunofluorescent method to detect levels of tubulin detyrosination in human cells. Dose dependent reduction of tubulin detyrosination in human cells is observed after 2 hours treatment with all SVCs. In cellulo IC50 measure for SVC_03=10 nM.
FIG. 30: Immunofluorescent method to detect levels of tubulin detyrosination in human cells. Dose dependent reduction of tubulin detyrosination in human cells is observed after 2 hours treatment with all SVCs.
Since to date no small molecule has been designed to inhibit the enzyme VASH that is responsible for tubulin detyrosination, we engineered various compounds based on the natural substrate of the enzyme. We undertook an extensive analysis of the human proteome and sought to identify human proteins that encoded a -EEY sequence at the very C-terminal. Only 3 proteins matched the criteria including alpha-tubulin. Therefore, we developed 5 compounds that all share a tyrosine in the structure that is essential for the specificity (FIG. 2). […] Using computer-aided drug discovery and iterative cycles of medicinal chemistry work-up followed by ELISA (in vitro) and HCS (in cellulo) testing, we gathered a SAR database containing new chemical entities. The potency and selectivity of these compound is considered within pharmaceutical standards for further development. […] Next, using a human cell-line we assayed the activity of the compound SVC_01 in a cellular system that further gives indication on penetration and cellular efficacy. Following 2 hours exposure of the human cells to the SVC_01 compound, we fixed and analysed by specific immunofluorescence the labelling of detyrosinated tubulin but also that of another posttranslational modification termed acetylation (FIG. 4). […] Although specific, SVC_01 was used at micromolar concentration to obtain full inhibition. With the objective to improve cellular IC50 of our SVCs, we designed compounds that have better cell penetration specifications.

[3] = tested on: mitochondrial activity; experiment: Seahorse Cell Mito Stress Test; format: cell-based; conditions: 20 μM
Procedure: FIG. 10: Mitochondrial activity assays using the Agilent Seahorse Cell Mito Stress Test kit in absence or presence of SVC_01 [20 μM]. This assay is the widely recognized, well-accepted standard assay for assessing energetic mitochondrial function. Multiple parameters are obtained in this one assay including, basal respiration, ATP-linked respiration, maximal and reserve capacities, and non-mitochondrial respiration. The assay provides insights into the mechanism of mitochondrial dysfunction and allow users to investigate functional differences among cell types, drug candidates, and genetic or biochemical interventions.
Next, we performed safety pharmacology experiments and head-to-head compared the cellular toxicity of SVCs on human cells. For our comparison we used microtubule binding agents including Parthenolide that previously was coined as an inhibitor of detyrosination (Fonrose et al., 2007). This compound was latter shown to disrupt microtubules by non-specific binding to tubulin in the molecular structure (Hotta T. et al., 2021). […] Mitochondrial health was assayed using the Seahorse equipment XF. […] No mitochondrial defects were measured at 20 micromolar concentration of our VASH inhibitor (FIG. 10). […]

[4] = tested on: human adult cardiomyocytes; experiment: mRNA expression of detyrosination-tyrosination cycle genes in human adult cardiomyocytes; format: cell-based; conditions: vs vehicle
Procedure: FIG. 34: human adult cardiomyocytes are treated with vehicle or SVC-01 and collected for analysis of mRNA expression of genes involved in the detyrosination-tyrosination cycle.
Specificity of SVC-01 was assayed using both human VASH1 and VASH2 recombinant enzymes. […] Finally, to ensure that regulation of other genes involved in the detyrosination-tyrosination cycle is not affected, we analysed gene expression of all relevant and associated genes following treatment with SVC-02 in adult human cardiomyocytes. We found no alteration of VASH1, VASH2, MATCAP, TTL or SVBP gene expression between vehicle control and SVC-02 treated cells (FIG. 34).

[5] = 2 hours exposure, immunofluorescence

Chain of recombinant human VASH1 (hVASH1) and SVBP complex (Q7L8A9 whole entry): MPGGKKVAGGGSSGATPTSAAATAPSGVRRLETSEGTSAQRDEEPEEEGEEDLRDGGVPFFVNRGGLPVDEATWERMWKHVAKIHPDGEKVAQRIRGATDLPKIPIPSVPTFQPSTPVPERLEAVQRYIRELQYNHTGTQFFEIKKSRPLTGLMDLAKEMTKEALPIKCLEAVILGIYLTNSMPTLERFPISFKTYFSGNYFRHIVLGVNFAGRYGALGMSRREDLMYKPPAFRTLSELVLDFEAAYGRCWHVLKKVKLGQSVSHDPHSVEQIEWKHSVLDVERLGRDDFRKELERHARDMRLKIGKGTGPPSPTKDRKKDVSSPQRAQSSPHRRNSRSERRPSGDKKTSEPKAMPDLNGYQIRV
Chain of recombinant human VASH1 (hVASH1) and SVBP complex (Q8N300 whole entry partner): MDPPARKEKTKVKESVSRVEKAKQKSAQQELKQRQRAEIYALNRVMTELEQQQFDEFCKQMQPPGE

| SMILES | better inhibition compared to Epo-Y [1] | inhibition of detyrosinase activity of recombinant human VASH1 [1] | level of acetylated tubulin in human cells [2, 5] | level of tubulin detyrosination in human cells [2, 5] | mitochondrial activity [3] | expression of VASH1, VASH2, MATCAP, TTL or SVBP genes [4] | IC50 on human cells ([2]; human cells) |
| --- | --- | --- | --- | --- | --- | --- | --- |
| O=C(O)CCC[C@H](NC(=O)[C@H]1O[C@@H]1C(=O)C[C@@H](Cc1ccc(OCc2ccccc2)cc1)C(=O)O)C(=O)NCCc1ccccc1 [SVC_01] | about 100 × | efficiently inhibited; also recorded: efficient in inhibiting | remain unaffected; also recorded: without affecting the level of acetylation | background signal comparable to that observed in VASH 2KO cells; also recorded: completely reduced the level of tubulin detyrosination | does not alter mitochondrial activity | did not alter expression |  |
| CCOC(=O)[C@H](Cc1ccc(OCC)cc1)NC(=O)[C@H]1O[C@@H]1C(=O)N[C@@H](Cc1ccc(OCC)cc1)C(=O)OCC [SVC_02] |  | inactive in its prodrug form; also recorded: inactive toward the therapeutic target |  |  |  | no alteration | low nanomolar |
